Experimental data taken from patent publication US7067520B2, “Preventive or therapeutic medicines for diabetes containing fused-heterocyclic compounds or their salts” (Ishihara Sangyo Kaisha, Ltd., priority 2000, dated 2006).

SMILES | melting point
CSc1nc2ccnn2c(NCc2cccc3ccccc23)c1C#N [compound 30] | 195 °C
CCC(CC)Sc1nc2ccnn2c(NCc2ccncc2)c1C#N [compound 115] | 129 to 133.4 °C
COCSc1nc2ccnn2c(NCc2ccccc2)c1C#N [compound 107] | 137.4 to 141.4 °C
CSc1nc2ccnn2c(Nc2ccc(C(C)=O)cc2)c1C#N [compound 199] | 260 to 261 °C
COC(=O)c1c(SC)nc2ccnn2c1O [compound 155] | 192 to 194 °C
CSc1ccc(Nc2c(C#N)c(SC)nc3ccnn23)cc1 [compound 196] | 190 to 191 °C
CSc1nc2ccnn2c(Nc2ccc(N(C)C)cc2)c1C#N [compound 202] | 250 to 252 °C
CSc1nc2ccnn2c(NCc2ccccc2)c1C(=O)O [compound 128] | 162.7 to 164 °C
C=CCSc1nc2ccnn2c(N)c1C#N [compound 75] | 258.5 to 259 °C
CSc1nc2ccnn2c(NOc2ncc(C(F)(F)F)cc2Cl)c1C#N [compound 204] | 182 to 183 °C
C#CCSc1nc2ccnn2c(N)c1C#N [compound 94] | 206 °C (dec.)
N#Cc1c(C2CCCCC2)nc2ccnn2c1N [compound 91] | > 250 °C
CSc1nc2ccnn2c(Nc2ccc3ncsc3c2)c1C#N [compound 166] | 140 to 141 °C
CCC(CC)Sc1nc2ccnn2c(N)c1C#N [compound 113] | 242 to 243.8 °C
CCSc1nc2ccnn2c(N)c1C#N [compound 66] | > 240 °C
COc1nc2ccnn2c(NCc2ccncc2)c1C#N [compound 153] | 193 to 195 °C
CSc1nc2ccnn2c(Nc2cccc(C#N)c2)c1C(=O)OCc1ccccc1 [compound 148] | 141 to 142 °C
CSc1nc2ccnn2c(N(Cc2ccccn2)Cc2ccccn2)c1C#N [compound 6] | 139 °C
CSc1nc2ccnn2c(NOCC2CCCCO2)c1C#N (centres unmarked) [compound 209] | 161 °C
N#Cc1c(-c2ccccc2)nc2ccnn2c1NCc1ccncc1 [compound 89] | 199 to 201 °C
COC(=O)c1ccc(CNc2c(C#N)c(SC)nc3ccnn23)cc1 [compound 23] | 171 °C
CSc1nc2ccnn2c(NCc2ccccc2Cl)c1C#N [compound 33] | 160 °C
CSc1nc2ccnn2c(Nc2ccc(NC(C)=O)cc2)c1C#N [compound 193] | > 280 °C
CSc1nc2ccnn2c(NOCC2OCCO2)c1C#N [compound 208] | 152 to 153 °C
CSc1nc2ccnn2c(NOCCC2OCCCO2)c1C#N [compound 217] | 193 to 195 °C
CSc1nc2ccnn2c(Nc2cccc(S(=O)(=O)N(C)C)c2)c1C#N [compound 151] | 205 to 208 °C
CSc1nc2ccnn2c(Nc2ccc(O)cc2)c1C#N [compound 170] | 250 to 256 °C
N#Cc1c(SC2CCCC2)nc2ccnn2c1N [compound 103] | 270.5 to 271.3 °C
CSc1nc2cc(C)nn2c(O)c1C#N [compound 184] | > 250 °C
